From patent EP0606044A1, “Lactones compounds useful as pharmaceuticals” (SANDOZ LTD., priority 1992, dated 1994)

Columns and labels:
[1] = system: THP-1 cells; assay: Cytokine release from THP-1 cells (γ-interferon/LPS stimulated; ELISA, RIA, LDH, DNA); type: cell-based; details: Homo sapiens, γ-interferon, LPS, 40 hours, read-out: IC₅₀ value in the THP-1 test (concentration of compound which inhibits to 50 % the release of IL-1β)
Procedure: 1. Cytokine Release from THP-1 Cells
The THP-1 cell line is generally available and is described by Tsuchiya et al, Int. J. Cancer 26 171-176 (1980). 900 µl THP-1 cells (0.5 x 10⁶ cells) together with 100 U γ-interferon/0.9 ml RPMI 1640 medium (containing 2 mM L-glutamine and 5 % heat-inactivated foetal calf serum) are pipetted into 24 well culture plates. 100 µl of the compound to be tested are then added. After 3 hours at 37°C in 5 % CO2/95 % air, 10 µl lipopolysaccharide 500 µg/ml is added and the incubation continued for a further 40 hours. Appropriate controls (with and without stimulus, solvent) are also included. The media are then removed and clarified by centrifugation at 1000 g for 10 min. 1.0 ml digitonin 0.01 % is added to the wells to lyse the cells which are loosened by scraping with a rubber policeman and left at 4°C for 10 min. […] IL-1β, IL-6 and TNF-α assays are determined using commercially available ELISA kits (Cistron), PGE2 is measured using a standard RIA and DNA fluorimetrically using DAPI (4',6-diamidino-2-phenylindole.2HCl) […]
For the above uses the required dosage will of course vary depending on the mode of administration, the particular condition to be treated and the effect desired. […] It has been determined that the compound of Formula I' has an IC₅₀ value in the THP-1 test (concentration of compound which inhibits to 50 % the release of IL-1β) of 0.06 µM.

[2] = Solubility (characteristics of the metabolite); type: physicochemical
Text: Formula I', which is formula I in which R₄ and R₅ are methoxy, R₆ is OH, -a-b- is cis- -CH=CH-, c is C=O, -d-e- is -CHOH-CHOH-, -f-g- is trans- -CH=CH- and the asymmetric carbon atoms marked * all have the S-configuration [drawing 2] is the structure which has been assigned to the novel metabolite designated 87-250904-F1 and having the following characteristics: White needles (from methanol/water 1:1), m.p. […] HPLC : Column : LiChrospher 100 RP-8 (5µm) (LiChroCART 125-4, Merck) Mobile phase: acetonitrile/water/orthophosphoric acid 350:650:0.175 (by vol.) Flow rate: 1.0 ml/min Detection: UV 210 nm Retention time: 3.8 min.

Row | Structure (SMILES) | IC50 [1] [nM] | Solubility in methanol, DMSO, chloroform ([2]; methanol, DMSO, chloroform) | Solubility in water ([2]; water)
1 | COc1cc(O)c2c(c1OC)/C=C/C[C@H](O)[C@H](O)C(=O)/C=C\C[C@H](C)OC2=O [Formula I'] | 60 |  | 
2 | COc1cc(O)c2c(c1OC)/C=C/C[C@H](O)[C@H](O)C(=O)/C=C\C[C@H](C)OC2=O [Formula I', [3S-(3R*, 5Z, 8R*, 9R*, 11E)]-3,4,9,10-tetrahydro-8,9,16-trihydroxy-13,14-dimethoxy-3-methyl-1H[2] benzoxacyclotetradecin-1,7[8H] dione] |  | readily soluble | Almost insoluble
